Patent US20250179017A1 (GUANGDONG NEWOPP BIOPHARMACEUTICALS CO., LTD., priority 2022, published 2025)
pIC50: −log10 of the molar value.

Assays:
human EP2 (PTGER2) = target: T1, human EP2 (PTGER2) (Homo sapiens, UniProt P43116); test: EP2 antagonist assay (HEK-293 CNG membrane potential cAMP assay / 293T SEAP reporter assay, PGE2-stimulated); assay type: cell-based; conditions: EP2 antagonist activity; concentration for 50% inhibition of signal compared to DMSO
T1 construct: Cayman Chemical (Human EP2 Reporter Assay Kit)
Summary of the method: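 Two formats. In a CRE-SEAP reporter assay, reverse-transfected 293T cells received compound with PGE2 (13 nM final) for 6-8 h, then luminescence was read. In the ACTOne CNG format, HEK-293 cells were preincubated with compound for 15 min at RT, stimulated with 5 nM PGE2 for 30 min, and read by membrane-potential dye fluorescence. IC50 was taken versus DMSO.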

human EP4 (EP4R) = target: T2, human EP4 (EP4R) (Homo sapiens, UniProt P35408); test: EP4 antagonist assay (HEK-293 CNG membrane potential cAMP assay / 293T SEAP reporter assay, PGE2-stimulated); assay type: cell-based; conditions: EP4 antagonist activity; concentration for inhibition of signal compared to DMSO
T2 construct: Cayman Chemical (Human EP4 Reporter Assay Kit)
T2 sequence (P35408 whole entry): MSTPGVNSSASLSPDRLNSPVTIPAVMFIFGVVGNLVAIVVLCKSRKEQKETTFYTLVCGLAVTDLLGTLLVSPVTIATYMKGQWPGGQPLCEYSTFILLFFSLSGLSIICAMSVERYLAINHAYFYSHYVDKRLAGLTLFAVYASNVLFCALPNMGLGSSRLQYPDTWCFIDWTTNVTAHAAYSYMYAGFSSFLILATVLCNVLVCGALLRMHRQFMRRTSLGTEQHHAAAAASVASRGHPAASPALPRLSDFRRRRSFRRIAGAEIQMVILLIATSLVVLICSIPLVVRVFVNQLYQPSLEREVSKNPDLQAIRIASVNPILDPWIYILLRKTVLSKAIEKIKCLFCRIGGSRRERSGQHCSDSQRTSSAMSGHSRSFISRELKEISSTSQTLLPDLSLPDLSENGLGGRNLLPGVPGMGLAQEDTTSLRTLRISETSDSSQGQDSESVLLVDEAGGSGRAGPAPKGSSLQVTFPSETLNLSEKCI

T1 sequence (P43116 whole entry): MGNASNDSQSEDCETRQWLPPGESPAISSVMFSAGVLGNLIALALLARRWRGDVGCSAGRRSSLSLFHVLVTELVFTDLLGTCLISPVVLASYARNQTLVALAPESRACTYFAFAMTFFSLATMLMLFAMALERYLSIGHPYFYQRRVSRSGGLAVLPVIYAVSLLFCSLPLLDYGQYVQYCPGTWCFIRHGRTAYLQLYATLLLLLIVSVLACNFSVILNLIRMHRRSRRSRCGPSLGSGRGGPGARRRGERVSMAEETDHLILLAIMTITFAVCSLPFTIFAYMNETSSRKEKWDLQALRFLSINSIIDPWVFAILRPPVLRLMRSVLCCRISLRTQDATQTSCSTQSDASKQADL

Row | SMILES | pIC50 (human EP2 (PTGER2)) | pIC50 (human EP4 (EP4R))
1 | O=C(O)c1ccc(CNC(=O)c2cc(-c3ccccc3)cc3cnn(Cc4ccc(-c5ccccc5)cc4)c23)cc1 [Example 190, 4-((1-([1,1′-biphenyl]-4-ylmethyl)-5-phenyl-1H-indazole-7-carboxamido)methyl)benzoic acid] | > 7.00 | ≥ 7.00
2 | O=C(O)c1ccc(CNC(=O)c2cc(-c3ccc(F)cc3)cc3cnn(Cc4ccc(-c5ccccc5)cc4)c23)cc1 [Example 191, 4-((1-([1,1′-biphenyl]-4-ylmethyl)-5-(4-fluorophenyl)-1H-indazole-7-carboxamido)methyl)benzoic acid] | > 7.00 | ≥ 7.00
3 | O=C(NC[C@H]1CC[C@H](C(=O)O)CC1)c1cc(-c2ccccc2)cc2cnn(Cc3cccc(C(F)(F)F)c3)c12 [Example 221, (1r,4r)-4-((5-phenyl-1-(3-(trifluoromethyl)benzyl)-1H-indazole-7-carboxamido)methyl)cyclohexane-1-carboxylic acid] | > 7.00 | ≥ 7.00
4 | C[C@H](NC(=O)c1cc(-c2ccccc2)cc2cnn(Cc3cccc(C(F)(F)F)c3)c12)[C@H]1CC[C@H](C(=O)O)CC1 [Example 223, (1S,4r)-4-((S)-1-(5-phenyl-1-(3-(trifluoromethyl)benzyl)-1H-indazole-7-carboxamido)ethyl)cyclohexane-1-carboxylic acid] | ≤ 6.00 | ≥ 7.00
5 | C[C@@H](NC(=O)c1cc(-c2ccccc2)cc2cnn(Cc3cccc(C(F)(F)F)c3)c12)[C@H]1CC[C@H](C(=O)O)CC1 [Example 224, (1R,4r)-4-((R)-1-(5-phenyl-1-(3-(trifluoromethyl)benzyl)-1H-indazole-7-carboxamido)ethyl)cyclohexane-1-carboxylic acid] | > 7.00 | ≥ 7.00
